The target in this assay is human GLP-1 receptor (Homo sapiens, UniProt P43220). In words: In vitro functional potency, CRE luciferase reporter, whole BHK cells (hGLP-1R). The class given is cell-based. Further details: expressed in transfected cells; host or cells: BHK (parent line BHKTS13), clone BHK CRE luc2P hGLP-1R. The settings on record: BHK CRE luc2P hGLP-1R cells. Summed up: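 BHK CRE luc2P cells stably expressing hGIPR or hGLP-1R were seeded at 5000 cells/well overnight. They were treated 3 h at 37° C with a 12-point, 3.5-fold compound series in buffer with or without HSA, and luciferase luminescence was read. Values come from log(agonist)-response regression, averaging at least two replicates.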
human GLP-1 receptor, sequence (P43220 24-463): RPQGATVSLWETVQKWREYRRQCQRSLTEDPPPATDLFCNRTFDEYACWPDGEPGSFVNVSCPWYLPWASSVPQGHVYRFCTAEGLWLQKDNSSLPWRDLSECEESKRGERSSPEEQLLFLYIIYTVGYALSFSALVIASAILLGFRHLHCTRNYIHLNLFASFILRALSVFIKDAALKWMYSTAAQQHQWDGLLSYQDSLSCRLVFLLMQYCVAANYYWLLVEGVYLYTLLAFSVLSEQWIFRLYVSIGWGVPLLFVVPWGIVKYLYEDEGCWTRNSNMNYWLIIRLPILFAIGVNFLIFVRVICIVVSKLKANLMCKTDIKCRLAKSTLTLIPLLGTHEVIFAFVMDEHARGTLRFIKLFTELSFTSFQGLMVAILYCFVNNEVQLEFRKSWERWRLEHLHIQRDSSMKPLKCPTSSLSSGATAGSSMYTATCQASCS

The mark [1] stands for this setting: hGLP-1R, CRE Luc 1% HSA EC50, 1% HSA.
Setting [2] is: 0% HSA, read-out: hGLP-1R, CRE Luc 0% HSA EC50.

Read-outs that look alike come from different tables or passages of the source. Starred links: 1 amine or outer side, 2 acyl side, 3 side chain; linkers in the order of their positions; H or OH if unused. Non-standard residues stand in square brackets, D forms with d. Residues, ends and D or L forms follow the SMILES beside them. Groups on a side chain read outwards from the residue. *: point of attachment. C18 diacid = O=C(O)CCCCCCCCCCCCCCCCC(=O)*; γGlu = O=C(O)[C@H](CCC(=O)[*:2])N[*:1]; εLys = N[C@@H](CCCCN[*:1])C(=O)[*:2]; Aib = CC(C)(N)C(=O)O

For the compound `CC[C@H](C)[C@H](NC(=O)[C@H](Cc1ccccc1)NC(=O)[C@H](CCC(=O)O)NC(=O)[C@H](CCCNC(=N)N)NC(=O)[C@H](C)NC(=O)[C@H](C)NC(=O)[C@H](CCC(N)=O)NC(=O)[C@H](CCCCNC(=O)[C@@H](N)CCCCNC(=O)[C@@H](N)CCCCNC(=O)CC[C@H](NC(=O)CCCCCCCCCCCCCCCCC(=O)O)C(=O)O)NC(=O)[C@H](CCC(=O)O)NC(=O)[C@H](CC(C)C)NC(=O)[C@H](CC(C)C)NC(=O)[C@@H](NC(=O)[C@H](CO)NC(=O)[C@H](Cc1ccc(O)cc1)NC(=O)[C@H](CC(=O)O)NC(=O)[C@H](CO)NC(=O)[C@@H](NC(=O)[C@H](Cc1ccccc1)NC(=O)[C@@H](NC(=O)CNC(=O)[C@H](CCC(=O)O)NC(=O)C(C)(C)NC(=O)[C@@H](N)Cc1ccc(O)cc1)[C@@H](C)O)[C@@H](C)O)[C@@H](C)CC)C(=O)N[C@@H](CCC(=O)O)C(=O)N[C@@H](Cc1c[nH]c2ccccc12)C(=O)N[C@@H](CC(C)C)C(=O)N[C@@H](CC(C)C)C(=O)N[C@@H](CCCNC(=N)N)C(=O)NCC(=O)NCC(=O)N1CCC[C@H]1C(=O)N[C@@H](CCC(=O)O)C(=O)N[C@@H](CO)C(=O)NCC(=O)N[C@@H](C)C(=O)N1CCC[C@H]1C(=O)N1CCC[C@H]1C(=O)N1CCC[C@H]1C(=O)N[C@@H](CO)C(=O)O` [Compound 28] (H-Y[Aib]EGTFTSDYSILLEK([εLys-εLys-γGlu-C18 diacid])QAAREFIEWLLRGGPESGAPPPS-OH), the concentration giving a half-maximal response (EC50) runs as follows: (hGLP-1R, CRE Luc 0% HSA EC50, 0% HSA) 0.0062 nM; under setting [1], 0.139 nM.
Take `CC[C@H](C)[C@H](NC(=O)[C@H](Cc1ccccc1)NC(=O)[C@H](CCC(=O)O)NC(=O)[C@H](CCCNC(=N)N)NC(=O)[C@H](C)NC(=O)[C@H](C)NC(=O)[C@H](CCC(N)=O)NC(=O)[C@H](CCCCNC(=O)[C@@H](N)CCCCNC(=O)[C@@H](N)CCCCNC(=O)CC[C@H](NC(=O)CCCCCCCCCCCCCCCCC(=O)O)C(=O)O)NC(=O)[C@H](CCC(=O)O)NC(=O)[C@H](CC(C)C)NC(=O)[C@H](CC(C)C)NC(=O)[C@@H](NC(=O)[C@H](CO)NC(=O)[C@H](Cc1ccc(O)cc1)NC(=O)[C@H](CC(=O)O)NC(=O)[C@H](CO)NC(=O)[C@@H](NC(=O)[C@H](Cc1ccccc1)NC(=O)[C@@H](NC(=O)CNC(=O)[C@H](CCC(=O)O)NC(=O)C(C)(C)NC(=O)[C@@H](N)Cc1ccc(O)cc1)[C@@H](C)O)[C@@H](C)O)[C@@H](C)CC)C(=O)N[C@@H](CCC(=O)O)C(=O)N[C@@H](Cc1c[nH]c2ccccc12)C(=O)N[C@@H](CC(C)C)C(=O)N[C@@H](CC(C)C)C(=O)N[C@@H](C)C(=O)NCC(=O)NCC(=O)N1CCC[C@H]1C(=O)N[C@@H](CO)C(=O)N[C@@H](CO)C(=O)NCC(=O)N[C@@H](C)C(=O)N1CCC[C@H]1C(=O)N1CCC[C@H]1C(=O)N1CCC[C@H]1C(=O)N[C@@H](CO)C(=O)O` [Compound 31] (H-Y[Aib]EGTFTSDYSILLEK([εLys-εLys-γGlu-C18 diacid])QAAREFIEWLLAGGPSSGAPPPS-OH): the EC50 was 0.0042 nM under setting [2] and 0.202 nM under setting [1].
`CC[C@H](C)[C@H](NC(=O)[C@H](Cc1ccccc1)NC(=O)[C@H](CCC(=O)O)NC(=O)[C@H](CCC(N)=O)NC(=O)[C@H](C)NC(=O)[C@H](C)NC(=O)[C@H](CCC(N)=O)NC(=O)[C@H](CCCCNC(=O)[C@@H](N)CCCCNC(=O)[C@@H](N)CCCCNC(=O)CC[C@H](NC(=O)CCCCCCCCCCCCCCCCC(=O)O)C(=O)O)NC(=O)[C@H](CCC(=O)O)NC(=O)[C@H](CC(C)C)NC(=O)[C@H](CC(C)C)NC(=O)[C@@H](NC(=O)[C@H](CO)NC(=O)[C@H](Cc1ccc(O)cc1)NC(=O)[C@H](CC(=O)O)NC(=O)[C@H](CO)NC(=O)[C@@H](NC(=O)[C@H](Cc1ccccc1)NC(=O)[C@@H](NC(=O)CNC(=O)[C@H](CCC(=O)O)NC(=O)C(C)(C)NC(=O)[C@@H](N)Cc1ccc(O)cc1)[C@@H](C)O)[C@@H](C)O)[C@@H](C)CC)C(=O)N[C@@H](CCC(=O)O)C(=O)N[C@@H](Cc1c[nH]c2ccccc12)C(=O)N[C@@H](CC(C)C)C(=O)N[C@@H](CC(C)C)C(=O)N[C@@H](C)C(=O)NCC(=O)NCC(=O)N1CCC[C@H]1C(=O)N[C@@H](CO)C(=O)N[C@@H](CO)C(=O)NCC(=O)N[C@@H](C)C(=O)N1CCC[C@H]1C(=O)N1CCC[C@H]1C(=O)N1CCC[C@H]1C(=O)N[C@@H](CO)C(=O)O` [Compound 29] (H-Y[Aib]EGTFTSDYSILLEK([εLys-εLys-γGlu-C18 diacid])QAAQEFIEWLLAGGPSSGAPPPS-OH): the EC50 under setting [2] was determined as 0.0168 nM and the EC50 under setting [1] is 0.379 nM.
